# “And” between values parts separate entries of the source, which are not always exact repeats. Equal entries are not always repeated.
# What was measured:
# Format in all cases: in vivo, rat
# [1] = test system: male Sprague-Dawley rats; experiment: Paw pressure assay, mechanical hyperalgesia (PWT) in thermal burn pain model; details: rat burn injury 55° C. 24 s
# Description: (§1) Test Animals: Each experiment used male Sprague-Dawley rats weighing between 190-260 g at the time of thermal burn injury. The rats were housed two per cage, and were allowed to acclimate to their environment for at least six days before testing began. The rats had free access to food and water at all times, except during testing and prior to oral (PO) administration of a test compound, when food was removed about 16 hours before dosing. The rats were divided into treatment groups, and one of the following compounds was administered to each group at the dose and by the route of administration indicated in Tables 5.2A to 5.2C, 5.3A and 5.3B, and 5.4A and 5.4B: ketorolac (Sigma-Aldrich, St. Louis, Mo.), AMG 517 (selective TRPV1 antagonist described in Em. Doherty et al., “Novel vanilloid receptor-1 antagonists:2. Structure-activity relationships of 4-oxopyrimidines leading to the selection of a clinical candidate,” J Med Chem 50:3515-3527 (2007).) (Purdue Pharma L. P., Cranbury, N.J.), indomethacin (Alexis Biochemicals, Farmingdale, N.Y.), gabapentin (Bosche Scientific, New Brunswick, N.J.), or (S)-3-chloro-5-(1,2-dihydroxyethyl)-N-(5-(trifluoromethyl)pyridin-2-yl)-5′,6′-dihydro-[2,4′-bipyridine]-1′(2′H)-carboxamide (Compound 1). The control groups were administered the vehicle for the compound of formula (I). The volume of administration for PO treatment was 5 ml/kg, and was the same for all treatment groups. Volume of administration for intraperitoneal (i.p.) drug administration was 2 ml/kg.
# (§2) To assess the actions of a compound of formula (I) for the treatment or prevention of burn pain, a model of thermal burn pain was used. A thermal burn injury was induced under isofluorane/O2 inhalation anesthesia. To assess mechanical hyperalgesia and weight bearing, a thermal injury was produced by immersing the left hind paw into water maintained at 55° C. for 24 seconds. The left hind paw of non-injured control animals was immersed in 22° C. water for 24 seconds. To assess thermal hyperalgesia, a thermal injury was produced by immersing the left hindpaw into water maintained at 50° C. for 48 seconds; the left hind-paw of non-injured control animals was immersed in 22° C. water for 48 seconds. The animals were assessed for response to noxious mechanical stimuli by determining PWT for mechanical hyperalgesia, weight bearing difference between the injured or non-injured side, or response to noxious thermal stimuli by determining PWL for thermal hyperalgesia, all as described below, prior to drug administration (baseline), then again at 1, 3 and 5 hours after induction of burn injury.
# The paw pressure assay was used to assess mechanical hyperalgesia. For this assay, hind paw withdrawal thresholds (PWT) to a noxious mechanical stimulus were determined using an analgesimeter (Model 7200, commercially available from Ugo Basile of Italy) as described in C. Stein, “Unilateral Inflammation of the Hindpaw in Rats as a Model of Prolonged Noxious Stimulation: Alterations in Behavior and Nociceptive Thresholds,” Pharmacol. Biochem. and Behavior 31:451-455 (1988). The rat's paw was placed on a small platform, and weight was applied in a graded manner up to a maximum of 250 grams. The endpoint was taken as the weight at which the paw was completely withdrawn. PWT was determined once for each rat at each time point, wherein the affected (ipsilateral; same side as the injury) rear paw was tested. […] All drug treatment groups were compared to the vehicle control group (i.e. injured, administered only the vehicle).
# [2] = test system: male Sprague-Dawley rats; experiment: Hind limb weight bearing (incapacitance meter, % WL) in thermal burn pain model; details: rat burn injury 55° C. 24 s
# Description: as §1, §2
# A commercially available incapacitance meter was used to determine the weight distribution on the two hind paws of the animal (Linton Incapacitance Tester (Linton Instrumentation, Norfolk, UK)). The weight bearing difference (WBD) between the injured and non-injured hindpaw was measured. The animal was placed in the testing chamber that allows the animal to stand normally, distributing its body weight on the hind limbs for the test. Each hind paw was positioned on a separate pressure sensitive pad, which independently measures the pressure applied by each limb. The device continuously collects data after either a force threshold has been exceeded, or the investigator depresses the start pad. Rats were allowed to acclimate when placed on the apparatus, and when they were stationary, the force exerted was then continuously monitored for 3 s. The endpoint was the amount of pressure applied to each limb over time. Three readings were taken for each rat at each time point, and the average used for data analysis. WBD was expressed as “% WL”, i.e. the percentage of weight borne on the burn-injured left hind paw, using the following formula: […]
# where WLP is the weight on the left hind paw and WRP is the weight on the right (untreated) hind paw. The 50% value of % WL corresponds to an equal weight distribution across both hind paws. […]
# [3] = test system: male Sprague-Dawley rats; experiment: Plantar test, thermal hyperalgesia (PWL) in thermal burn pain model; details: rat burn injury 50° C. 48 s, 30 mg/kg PO
# Description: as §1, §2
# The plantar test was used to assess thermal hyperalgesia. For this test, hind paw withdrawal latencies (PWL) to a noxious thermal stimulus were determined using a plantar test apparatus (commercially available from Ugo Basile of Italy) following the technique described by K. Hargreaves et al., “A New and Sensitive Method for Measuring Thermal Nociception in Cutaneous Hyperalgesia,” Pain 32(1):77-88 (1988). The maximum exposure time was set at 32 seconds to avoid tissue damage and any directed paw withdrawal from the heat source is taken as the end point. Three latencies were determined at each time point and averaged.
# [4] = 3 mg/kg IP, 1 h after administration
# [5] = 3 mg/kg IP, 3 h after administration
# [6] = 3 mg/kg IP, 5 h after administration
# [7] = 10 mg/kg IP, 1 h after administration
# [8] = 10 mg/kg IP, 3 h after administration
# [9] = 10 mg/kg IP, 5 h after administration
# [10] = 30 mg/kg IP, 1 h after administration
# [11] = 30 mg/kg IP, 3 h after administration
# [12] = 30 mg/kg IP, 5 h after administration
# [13] = 100 mg/kg IP in 0.9% NaCl, 1 h after administration, 100 mg/kg
# [14] = 100 mg/kg IP in 0.9% NaCl, 5 h after administration, 100 mg/kg
# [15] = 30 mg/kg PO, 5 h after administration
structure (smiles),measurement,setting,value
"NCC1(CC(=O)O)CCCCC1 [Gabapentin, gabapentin]",% Decrease from Baseline (mean ± S.E.M.) of Paw Withdrawal Threshold,[1]; [4],61 ± 2.1%
same,Paw Withdrawal Threshold (g) (mean ± S.E.M.),[1]; [4],90 ± 4.1 g
same,% Decrease from Baseline (mean ± S.E.M.) of Paw Withdrawal Threshold,[1]; [5],55 ± 3.7%
same,Paw Withdrawal Threshold (g) (mean ± S.E.M.),[1]; [5],102 ± 7.4 g
same,% Decrease from Baseline (mean ± S.E.M.) of Paw Withdrawal Threshold,[1]; [6],65 ± 3.0%
same,Paw Withdrawal Threshold (g) (mean ± S.E.M.),[1]; [6],81 ± 6.5 g
same,Paw Withdrawal Threshold (g) (mean ± S.E.M.),"[1]; 3 mg/kg IP, baseline (prior to drug administration)",232 ± 10.0 g
same,% Decrease from Baseline (mean ± S.E.M.) of Paw Withdrawal Threshold,[1]; [7],47 ± 3.9%
same,Paw Withdrawal Threshold (g) (mean ± S.E.M.),[1]; [7],122 ± 9.1 g
same,% Decrease from Baseline (mean ± S.E.M.) of Paw Withdrawal Threshold,[1]; [8],43 ± 3.7%
same,Paw Withdrawal Threshold (g) (mean ± S.E.M.),[1]; [8],130 ± 8.2 g
same,% Decrease from Baseline (mean ± S.E.M.) of Paw Withdrawal Threshold,[1]; [9],57 ± 3.2%
same,Paw Withdrawal Threshold (g) (mean ± S.E.M.),[1]; [9],100 ± 8.7 g
same,Paw Withdrawal Threshold (g) (mean ± S.E.M.),"[1]; 10 mg/kg IP, baseline (prior to drug administration)",231 ± 9.7 g
same,% Decrease from Baseline (mean ± S.E.M.) of Paw Withdrawal Threshold,[1]; [10],40 ± 2.0 %
same,Paw Withdrawal Threshold (g) (mean ± S.E.M.),[1]; [10],144 ± 7.2 g
same,% Decrease from Baseline (mean ± S.E.M.) of Paw Withdrawal Threshold,[1]; [11],27 ± 5.1 %
same,Paw Withdrawal Threshold (g) (mean ± S.E.M.),[1]; [11],174 ± 14.8 g
same,% Decrease from Baseline (mean ± S.E.M.) of Paw Withdrawal Threshold,[1]; [12],56 ± 4.0^ %
same,Paw Withdrawal Threshold (g) (mean ± S.E.M.),[1]; [12],105 ± 11.2 g
same,Paw Withdrawal Threshold (g) (mean ± S.E.M.),"[1]; 30 mg/kg IP, baseline (prior to drug administration)",237 ± 7.9 g
same,% Decrease from Baseline (mean ± S.E.M.) of Paw Withdrawal Threshold,[1]; [13],37 ± 5.3 % and 23 ± 6.6 % and 41 ± 3.6 %
same,Paw Withdrawal Threshold (g) (mean ± S.E.M.),[1]; [13],152 ± 14.1 g and 180 ± 13.7 g and 145 ± 9.8 g
same,% Decrease from Baseline (mean ± S.E.M.) of Paw Withdrawal Threshold,[1]; [14],53 ± 6.0^ % and 55 ± 4.6^ % and 56 ± 2.2^ %
same,Paw Withdrawal Threshold (g) (mean ± S.E.M.),[1]; [14],112 ± 12.4^ g and 105 ± 9.5 g and 108 ± 5.8^ g
same,Paw Withdrawal Threshold (g) (mean ± S.E.M.),"[1]; 100 mg/kg IP in 0.9% NaCl, baseline (prior to drug administration), 100 mg/kg",239 ± 7.7 g and 237 ± 7.8 g and 246 ± 4.5^ g
same,"% WL (mean ± S.E.M.), percentage of weight borne on the burn-injured left hind paw","[2]; 100 mg/kg IP in NaCl, 1 h after administration",33.6 ± 3.09 %
same,"% WL (mean ± S.E.M.), percentage of weight borne on the burn-injured left hind paw","[2]; 100 mg/kg IP in NaCl, 3 h after administration",44.8 ± 2.58%
same,"% WL (mean ± S.E.M.), percentage of weight borne on the burn-injured left hind paw","[2]; 100 mg/kg IP in NaCl, 5 h after administration",44.0 ± 2.24%
same,"% WL (mean ± S.E.M.), percentage of weight borne on the burn-injured left hind paw","[2]; 100 mg/kg IP in NaCl, baseline (prior to drug administration)",51.1 ± 0.57%
"COc1ccc2c(c1)c(CC(=O)O)c(C)n2C(=O)c1ccc(Cl)cc1 [Indomethacin, indomethacin]",% Decrease from Baseline (mean ± S.E.M.) of Paw Withdrawal Threshold,"[1]; 30 mg/kg PO, 1 h after administration",51 ± 2.6 %
same,% Decrease from Baseline (mean ± S.E.M.) of Paw Withdrawal Threshold,"[1]; 30 mg/kg PO, 3 h after administration",45 ± 5.8 %
same,% Decrease from Baseline (mean ± S.E.M.) of Paw Withdrawal Threshold,[1]; [15],58 ± 3.6%
same,Paw Withdrawal Threshold (g) (mean ± S.E.M.),[1]; [15],103 ± 10.2 g
same,Paw Withdrawal Threshold (g) (mean ± S.E.M.),"[1]; 30 mg/kg PO, baseline (prior to drug administration)",240 ± 7.5 g
same,% Change from Baseline (mean ± S.E.M.) of Paw Withdrawal Latency,[3]; 1 h after administration,−41.5 ± 10.71%
same,Paw Withdrawal Latency (sec) (mean ± S.E.M.),[3]; 1 h after administration,8.3 ± 0.91 s
same,% Change from Baseline (mean ± S.E.M.) of Paw Withdrawal Latency,[3]; 3 h after administration,−26.1 ± 13.18%
same,Paw Withdrawal Latency (sec) (mean ± S.E.M.),[3]; 3 h after administration,11.2 ± 0.87 s
same,% Change from Baseline (mean ± S.E.M.) of Paw Withdrawal Latency,[3]; 5 h after administration,−25.5 ± 13.63%
same,Paw Withdrawal Latency (sec) (mean ± S.E.M.),[3]; 5 h after administration,11.4 ± 0.51 s
same,Paw Withdrawal Latency (sec) (mean ± S.E.M.),[3]; baseline (prior to drug administration),14.3 ± 1.26 s
same,"% WL (mean ± S.E.M.), percentage of weight borne on the burn-injured left hind paw","[2]; 30 mg/kg PO, 3 h after administration, 30 mg/kg",42.6 ± 2.14% and 46.8 ± 2.17%
same,"% WL (mean ± S.E.M.), percentage of weight borne on the burn-injured left hind paw","[2]; 30 mg/kg PO, 5 h after administration, 30 mg/kg",43.7 ± 2.38% and 48.2 ± 2.54%
same,"% WL (mean ± S.E.M.), percentage of weight borne on the burn-injured left hind paw","[2]; 30 mg/kg PO, baseline (prior to drug administration), 30 mg/kg",49.1 ± 0.53% and 50.4 ± 0.54%

# From patent publication US20180303809A1, “TREATMENT OF BURN PAIN BY TRPV1 MODULATORS” (Purdue Pharma L.P., priority 2013, published 2018)
